According to patent US8049013B2, “5- [4-(azetidin-3-yloxy)-phenyl]-2-phenyl-5H-thiazolo[5,4-C] pyridin-4-one derivatives and their use as MCH receptor antagonists” (Eli Lilly and Company, priority 2006, dated 2011):
Structures can show the parent of a compound that is named as a salt.

Legend:
human MCHR1 [1] = target: T1, human MCHR1 (Homo sapiens, UniProt Q99705); assay: Functional GTPγ35S binding assay: inhibition of MCH-stimulated GTPγ35S binding to membranes of AV-12 cells expressing human MCHR1; assay type: biochemical; conditions: Kb from IC50 by modified Cheng-Prusoff (Leff and Dougal)
T1 construct: expressed in transfected cells; host or cells: AV-12 cells (clone 43), membranes
T1 sequence (Q99705 whole entry): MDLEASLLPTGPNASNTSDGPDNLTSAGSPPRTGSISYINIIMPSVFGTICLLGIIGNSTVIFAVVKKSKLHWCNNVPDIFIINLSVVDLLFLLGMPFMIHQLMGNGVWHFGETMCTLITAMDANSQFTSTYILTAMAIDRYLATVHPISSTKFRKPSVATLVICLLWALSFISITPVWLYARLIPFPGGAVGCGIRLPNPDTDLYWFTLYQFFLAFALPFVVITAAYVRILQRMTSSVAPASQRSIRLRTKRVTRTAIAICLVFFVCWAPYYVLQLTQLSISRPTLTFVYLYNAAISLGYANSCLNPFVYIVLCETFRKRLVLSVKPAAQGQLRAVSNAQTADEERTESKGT
Excerpt: (§1) One of skill in the art is able to perform both the ^125I-MCH binding and functional GTPγ^35S binding assays using the procedures herein or procedures disclosed in the art. For binding assay, see for example, Macdonald, D., et al., 2000. Molecular characterization of the melanin-concentrating hormone/receptor complex: identification of critical residues involved in binding and activation. Mol Pharmacol 58, 217-225. For GTPgammaS functional assay, see for example, Gao, X., et al., 2004. Europium-labeled melanin-concentrating hormone analogues: ligands for measuring binding to melanin-concentrating hormone receptors 1 and 2. Anal Biochem 328, 187-195.
Functional antagonism of MCH activity is assessed by measuring the ability of a test compound to inhibit MCH-stimulated binding of GTPγ^35S to membranes isolated from AV-12 cells expressing the human MCHR1 using a scintillation proximity assay. […] After verifying competitive antagonism by Schild analysis, Kb values are calculated from the IC50 values for each antagonist and the EC50 for MCH (determined independently) using a modification of the Cheng-Prusoff approximation as described by Leff and Dougal (Trends Pharmacol. Sci. (1993) 14: 110-112). […]

[2] = In vivo efficacy in diet-induced obese male Long-Evans rats, oral gavage once a day for 3 days; conditions: 10 mg/Kg oral
Experimental: Animals are housed individually in a temperature regulated room (24° C.) with a reverse 12 hour light/dark cycle (dark 10:00/22:00). Water and food (Teklad 95217, Harlan, Wis.) were available ad libitum. Compounds are administered orally in a vehicle that consists of 10% acacia and 0.15% saccharin in water once a day before onset of the dark period for 3 days. Food intake and body weight are measured daily for the 3 day period. The compound of Example 29 produces an average body weight reduction of about 7 grams at a dose of 10 mg/Kg when compared to vehicle control.

human MCHR1 [3] = target: T1, human MCHR1; assay: 125I-MCH competitive binding assay (scintillation proximity), membranes of AV-12 cells transfected with human MCHR1; conditions: Ki calculated from IC50 by Cheng-Prusoff, average
Excerpt: as §1
Binding of compounds to MCHR1 is assessed in a competitive binding assay employing ^125I-MCH, compound of the invention, and clone 43 membranes using scintillation proximity techniques. IC50 values (defined as the concentration of test compound required to reduce specific binding of ^125I-MCH by 50%) are determined by fitting the concentration-response data to a 4-parameter model (max response, min response, Hill coefficient, IC50) using a spreadsheet.

With `COc1cc(N2CCc3nc(-c4ccc(Cl)cc4)sc3C2=O)ccc1OC1CN(C(C)C)C1` [Example 28, 2-(4-Chloro-phenyl)-5-[4-(1-isopropyl-azetidin-3-yloxy)-3-methoxy-phenyl]-6,7-dihydro-5H-thiazolo[5,4-c]pyridin-4-one, hydrochloride salt] as the compound, how does the Kb (human MCHR1 [1]) read?
Its Kb is roughly 6 nM.

With `COc1cc(N2CCc3nc(-c4ccc(Cl)cc4)sc3C2=O)ccc1OC1CN(C2CCC2)C1.Cl` [Example 29, 2-(4-Chloro-phenyl)-5-[4-(l-cyclobutyl-azetidin-3-yloxy)-3-methoxy-phenyl]-6,7-dihydro-5H-thiazolo[5,4-c]pyridin-4-one, hydrochloride salt] as the compound, how does the “average body weight reduction when compared to vehicle control” value [2] read?
Its value is “about 7 grams”.

With `COc1cc(N2CCc3nc(-c4ccc(Cl)cc4)sc3C2=O)ccc1OC1CN(C2CC2)C1` [Example 37, 2-(4-Chloro-phenyl)-5-[4-(1-cyclopropyl-azetidin-3-yloxy)-3-methoxy-phenyl]-6,7-dihydro-5H-thiazolo[5,4-c]pyridin-4-one, hydrochloride salt] as the compound, how does the Ki (human MCHR1 [3]) read?
The Ki was roughly 4 nM.
